Structures can show the parent of a compound that is named as a salt.

Our source for the IC50 values is patent publication US11634391B2, “Compounds which are inhibitors of Notum” (UCL BUSINESS LTD, priority 2018, dated 2023).

The experiment deals with notum carboxyesterase enzyme (Homo sapiens (Human), UniProt Q6P988). In words: Biochemical Notum Enzymatic Activity Assay (OPTS substrate, fluorescence). To be noted: 2 μM OPTS solution, 2.38 nM notum enzyme solution, 1 hour incubation at room temperature, fluorescence ex 485 nm / em 520 nm; n≥2. An excerpt: Plate layout and measured fluorescence values were input into Dotmatics Studies data management tool.
Chain of notum carboxyesterase enzyme (Q6P988 20-496): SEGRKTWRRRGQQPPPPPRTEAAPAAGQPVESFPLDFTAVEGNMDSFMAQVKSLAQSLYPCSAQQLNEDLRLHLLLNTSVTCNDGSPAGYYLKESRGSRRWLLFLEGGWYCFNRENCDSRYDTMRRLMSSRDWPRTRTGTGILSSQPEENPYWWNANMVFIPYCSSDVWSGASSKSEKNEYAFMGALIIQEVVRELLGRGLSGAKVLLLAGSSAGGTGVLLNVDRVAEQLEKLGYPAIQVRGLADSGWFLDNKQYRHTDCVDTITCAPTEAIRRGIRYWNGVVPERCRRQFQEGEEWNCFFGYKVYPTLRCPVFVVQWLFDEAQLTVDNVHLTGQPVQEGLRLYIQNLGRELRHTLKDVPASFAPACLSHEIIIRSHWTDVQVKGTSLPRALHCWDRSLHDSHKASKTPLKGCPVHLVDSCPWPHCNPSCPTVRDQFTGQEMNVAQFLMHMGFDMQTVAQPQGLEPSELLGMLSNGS
What is called IC50 is the midpoint of a concentration-inhibition curve. A higher IC50 goes with a need for much substance. For the compound `Nc1nnc(-c2ccc(Cl)c(C(F)(F)F)c2Cl)o1` [Compound 248, 5-[2,4-dichloro-3-(trifluoromethyl)phenyl]-1,3,4-oxadiazol-2-amine], half-maximal inhibition (IC50) was put at 11.9 nM.
Take `FC(F)(F)c1cc(-n2cnnn2)ccc1Cl` [Compound 215, 1-[4-chloro-3-(trifluoromethyl)phenyl]tetrazole]: the IC50 is 457 nM.
The value for `O=c1cc(-c2ccccc2)cc[nH]1` [Compound 236, 4-phenylpyridin-2(1H)-one] was 14100 nM; that for `NCc1cc(-c2ccc(Cl)cc2)no1` [Compound 167, (3-(4-chlorophenyl)isoxazol-5-yl)methanamine] was 70200 nM; that for `OCc1cn(-c2cccc(C(F)(F)F)c2)nn1` [Compound 275, (1-(3-(trifluoromethyl)phenyl)-1H-1,2,3-triazol-4-yl)methanol] was 2230 nM.
Compound `Clc1cccc(-c2cc[nH]n2)c1` [Compound 54, 3-(3-chlorophenyl)-1H-pyrazole] showed an IC50 of 17700 nM.
The compound `Clc1ccc(-n2cnnn2)cc1Cl` [Compound 214, 1-(3,4-dichlorophenyl)tetrazole] had an IC50 of 1560 nM.
The compound `Cc1ccc(-c2csnn2)cc1` [Compound 145, 4-(p-tolyl)-1,2,3-thiadiazole] gave an IC50 of 3470 nM.
The value for `CC(C)c1ccc(-n2ccnn2)cc1` [Compound 60, 1-(4-isopropylphenyl)-1H-1,2,3-triazole] was 995 nM; that for `OCc1cn(-c2ccc(Cl)c(C3CC3)c2)nn1` [Compound 276, (1-(4-chloro-3-cyclopropylphenyl)-1H-1,2,3-triazol-4-yl)methanol] was 1060 nM; that for `CCOc1cccc(-c2nnc(N)s2)c1` [Compound 48, 5-(3-ethoxyphenyl)-1,3,4-thiadiazol-2-amine] was 85900 nM.
The value for `FC(F)(F)c1c(Cl)ccc(-c2c[nH]nn2)c1Cl` [Compound 306, 4-[2,4-dichloro-3-(trifluoromethyl)phenyl]-1H-triazole] was 2.9 nM.
As to `OCc1cn(-c2ccc(Cl)c(OC(F)(F)F)c2)nn1` [Compound 270, (1-(4-chloro-3-(trifluoromethoxy)phenyl)-1H-1,2,3-triazol-4-yl)methanol], 697 nM corresponded to half-maximal inhibition (IC50).
`NCc1cn(-c2ccc(Cl)c(Cl)c2)nn1` [Compound 31, (1-(3,4-dichlorophenyl)-1H-1,2,3-triazol-4-yl)methanamine] had an IC50 of 8820 nM. This IC50 is about 13-fold higher than that of the compound before.
In the case of `NCc1cn(-c2cccc(C(F)(F)F)c2)nn1` [Compound 38, (1-(3-(trifluoromethyl)phenyl)-1H-1,2,3-triazol-4-yl)methanamine hydrochloride], half-maximal inhibition (IC50) was put at 37500 nM.
On to `Clc1ccc(-c2nnco2)cn1` [Compound 124, 2-(6-chloropyridin-3-yl)-1,3,4-oxadiazole], for which the IC50 stood at 13000 nM.
On to `FC(F)(F)c1cc(-n2ccnn2)cc(Cl)c1Cl` [Compound 309, 1-[3,4-dichloro-5-(trifluoromethyl)phenyl]triazole], for which inhibition was half-maximal at 107 nM (IC50).
In turn, `OCc1nnc(-c2ccc(Cl)c(Cl)c2)o1` [Compound 126, [5-(3,4-dichlorophenyl)-1,3,4-oxadiazol-2-yl]methanol] gave an IC50 of 726 nM.
`NCc1cc(-c2ccccc2)no1` [Compound 143, (3-phenylisoxazol-5-yl)methanamine] came in with a half-inhibitory concentration (IC50) of 11600 nM.
Regarding `FC(F)(F)c1c(Cl)ccc(-n2cnnn2)c1Cl` [Compound 298, 1-(2,4-dichloro-3-(trifluoromethyl)phenyl)-1H-tetrazole], 136 nM corresponded to half-maximal inhibition (IC50). Against the preceding compound, the IC50 is about 85-fold lower.
`Clc1ccc(-n2ccnc2)cc1` [Compound 149, 1-(4-chlorophenyl)imidazole]: the IC50 came out at 5160 nM.
Regarding `FC(F)(F)c1cccc(-c2nnco2)n1` [Compound 221, 2-[6-(trifluoromethyl)-2-pyridyl]-1,3,4-oxadiazole], inhibition was half-maximal at 82500 nM (IC50).
Consider `Clc1ccc(-c2n[nH]c(-c3ccccn3)n2)cc1Cl` [Compound 130, 2-(3-(3,4-dichlorophenyl)-1H-1,2,4-triazol-5-yl)pyridine], for which the half-inhibitory concentration (IC50) was found to be 596 nM. This IC50 lies about 140-fold lower than the previous one.
Consider `CN1CC(C)(C)c2cc(-c3nnc(O)o3)ccc21` [Compound 180, 5-(1,3,3-trimethylindolin-5-yl)-1,3,4-oxadiazol-2-ol], for which the IC50 amounted to 34.4 nM. This IC50 is about 17-fold lower than that of the compound before.
In turn, `FC(F)(F)c1cccc(-n2cnnn2)c1` [Compound 213, 1-[3-(trifluoromethyl)phenyl]tetrazole] yielded an IC50 of 4870 nM.
The value for `NCc1cc(-c2cccc(Cl)c2)no1` [Compound 147, (3-(3-chlorophenyl)isoxazol-5-yl)methanamine] was 15200 nM; that for “4-(4-(1,3,4-oxadiazol-2-yl)-2-(trifluoromethyl)phenyl)pyrrolidine [Compound 280]” was 405 nM; that for `[2H]C([2H])([2H])Oc1nnc(-c2ccc(Cl)c(C(F)(F)F)c2Cl)o1` [Compound 241, 2-(2,4-dichloro-3-(trifluoromethyl)phenyl)-5-(methoxy-d3)-1,3,4-oxadiazole] was 3.6 nM.
The value for `CC(O)Cc1cn(-c2ccc(Cl)c(C(F)(F)F)c2Cl)nn1` (stereo not drawn) [Compound 305, 1-[1-[2,4-dichloro-3-(trifluoromethyl)phenyl]triazol-4-yl]propan-2-ol] was 1320 nM; that for `O=c1cccc(-c2ccccc2)[nH]1` [Compound 237, 6-phenylpyridin-2(1H)-one] was 49600 nM.
